Measured values: patent US20100143270A1, “THERAPEUTIC COTININE COMPOSITIONS” (University of Louisville Research Foubdation, priority 2007, published 2010)
Entries after “also recorded” stand apart in the source; their conditions may differ.

Assays:
[1] = system: THP-1 cells; assay: IL-10 release by LPS-stimulated THP-1 cells (ELISA); format: cell-based
Procedure: (§1) FIG. 11. The anti-inflammatory potential of cotinine is a GSK-3β-dependent but NF-κB-independent phenomenon. THP-1 Blue cells are stably transfected with a reporter plasmid expressing secreted embryonic alkaline phosphatase (SEAP) gene under the control of a NF-κB-inducible promoter. […] Cell-free supernatants were harvested by centrifugation and relative expression levels of SEAP (reflecting NF-κB; THP-1 Blue; circles) and IL-10 (THP-1; bars) were determined by spectrophotometric analysis of SEAP activity and ELISA, respectively.
(§2) THP-1 Blue cells are monocyte-like cells that have been stably transfected with a reporter plasmid expressing secreted embryonic alkaline phosphatase (SEAP) gene under the control of a NF-κB-inducible promoter. […] Cell-free supernatants were harvested by centrifugation and relative expression levels of NF-κB and IL-10 were determined by spectrophotometric analysis of SEAP activity and ELISA, respectively.
Levels of phosphorylated Akt and phoshorylated GSK-3β following cotinine (0-100 ng ml^−1) and/or E. coli LPS (1 μg ml^−1) treatment were determined by western blot using whole-cell lysates (20 μg) with probing for Akt using a phospho-specific Akt (Ser473) antibody; probing for GSK-3β using a phospho-specific GSK-3β (Ser9; denoted pGSK-3β) antibody; with the blots stripped and re-probed for total p38 to ensure equivalent loading. Antibodies were purchased from Cell Signaling, Beverly, Mass. Blots were visualized by enhanced chemiluminescence. The importance of the PI3K-dependent anti-inflammatory pathway in cotinine-induced inflammatory suppression was also established by pharmacological inhibition of PI3K and GSK-3β using the PI3K antagonists LY294002 (25 μM; Calbiochem®, San Diego, Calif.) and wortmannin (100 nM, Calbiochem); and the GSK-3β inhibitor SB216763 (6 μM; Sigma). […] Therefore, cells were also analyzed for cotinine-induced PI3K activation by, assaying the ability of PI3K to produce PIP3. Levels of PIP3 were determined by ELISA using a competitive inhibition assay (Echelon Bioscience, Salt Lake City, Utah). […]

[2] = system: NF-κB; assay: NF-κB-inducible SEAP reporter in LPS-stimulated THP-1 Blue cells; format: cell-based; settings: cotinine 100 ng ml^−1 2 h, LPS 1 μg ml^−1 24 h
Procedure: as §1, §2

[3] = system: neutrophils; settings: cited from earlier work
[4] = system: LPS-stimulated monocytes; assay: IL-10 release by LPS-stimulated human monocytes (ELISA); format: cell-based
[5] = system: PI3K; assay: PI3K activation in monocytes measured as PIP3 (competitive ELISA); format: cell-based, human; settings: LPS 1 μg ml^−1 60 minutes
[6] = system: nicotinic receptors in the brain; settings: cited from earlier work
[7] = system: striatal dopamine release; settings: cited from earlier work
[8] = system: Akt (Ser473); assay: Phosphorylated Akt western blot in monocytes; format: cell-based, human; settings: P. gingivalis stimulated monocytes; PI3K-dependent
Procedure: (§3) Antibodies were purchased from Cell Signaling, Beverly, Mass. Blots were visualized by enhanced chemiluminescence. The importance of the PI3K-dependent anti-inflammatory pathway in cotinine-induced inflammatory suppression was also established by pharmacological inhibition of PI3K and GSK-3β using the PI3K antagonists LY294002 (25 μM; Calbiochem®, San Diego, Calif.) and wortmannin (100 nM, Calbiochem); and the GSK-3β inhibitor SB216763 (6 μM; Sigma). Activated PI3K produces PIP3 that, in turn, activates downstream signaling components of the PI3K pathway. Therefore, cells were also analyzed for cotinine-induced PI3K activation by, assaying the ability of PI3K to produce PIP3. Levels of PIP3 were determined by ELISA using a competitive inhibition assay (Echelon Bioscience, Salt Lake City, Utah). The specific PI3K inhibitor LY294002 was used at 25 μM and served as a control to block PI3K activity.

[9] = system: primary monocytes; assay: Viability of primary monocytes
Procedure: Monocytes were pre-treated for 2 h with nicotine (triangles) or cotinine (squares) then stimulated with P. gingivalis (MOI=10) for 20 h. Cell-free supernatants were harvested by centrifugation and levels of TNF-α were determined by ELISA.
(A-E) Control monocytes (closed squares) and monocytes pre-treated with cotinine (100 ng ml^−1) for 2 hours (open squares) were stimulated with P. gingivalis 33277 LPS (0-10^5 ng ml^−1) for 24 hours. Cell-free supernatants were harvested by centrifugation and levels of pro-inflammatory cytokines (A-E) and IL-10 (E) were determined by ELISA. Data are the arithmetic mean±s.d. of 3 experiments.

[10] = cited from earlier work; for Terminal elimination half-life: in vivo
[11] = system: LPS-stimulated monocytes; assay: Pro-inflammatory cytokine release by LPS-stimulated human monocytes (ELISA); format: cell-based
Procedure: FIGS. 3A-3E. […] Monocytes were pre-treated with cotinine (1000 ng/ml) for 2 hours then stimulated with purified LPS (0 to 1×10^4 ng/ml) for 24 hours.
FIGS. 6A-6E. […] Cells were pre-treated with nicotine or cotinine (100 and 1000 ng/ml, respectively) for 2 hours then stimulated with purified LPS (0 to 1×10^4 ng/ml) for 24 hours. […] FIG. 6A provides data for IFNγ; FIG. 6B provides data for IL-1β, FIG. 6C provides data for IL-6, FIG. 6D provides data for TNF-α, and FIG. 6E provides data for IL-12/IL-23 p40.
Cotinine inhibited the production and release of multiple pro-inflammatory cytokines by monocytes stimulated with Toll-like receptor (TLR)-agonists in a dose-dependent manner. Cells were pre-treated with cotinine for 2 hours then stimulated with a TLR-agonist (purified LPS, 0 to 1×10^4 ng ml^−1) for 24 hours.
Inflammatory response of cotinine-exposed monocytes to P. gingivalis and LPS: In an initial series of experiments, we determined how physiological doses of nicotine and cotinine influenced levels of TNF secreted by monocytes stimulated with LPS. Human monocytes were pre-treated for 90 minutes with nicotine (1 to 1,000 ng/ml; Sigma-Aldrich, Inc.) or cotinine (1 to 10,000 ng/ml; Sigma-Aldrich, Inc.), then stimulated with purified E. coli K-12 LPS (0 to 10 μg/ml; InVivoGen™, San Diego, Calif.). TNF concentrations in 24 hr supernatants were measured by ELISA (eBioscience, San Diego, Calif.). Subsequently, the concentrations of multiple cytokines in 24 hr supernatants of cotinine pre-incubated (1000 ng/ml) LPS-([…]) stimulated monocytes were measured by ELISA (IFN-γ (PBL Biomed Labs, Piscataway, N.J.), IL-1β, IL-6, TNF, IL-10 (all eBioscience), and IL-12/IL-23 p40 (R&D Systems, Minneapolis, Minn.).
Primary monocytes were pre-treated with nicotine (0-100 ng ml^−1) or cotinine (0-1000 ng ml^−1) then stimulated with the Gram negative periodontal pathogen P. gingivalis (MOI=0-10); purified E. coli K-12 LPS (0-1 μml^−1; InVivoGen™, San Diego, Calif.); or purified P. gingivalis 33277 LPS for 20 h. Primary monocytes were also pre-treated with cotinine (100 ng ml^−1) then stimulated with increasing doses of LPS for 20 h. Cell-free supernatants were harvested by centrifugation and cytokine levels (TNF, IL-6, IL-10, IL-12/IL-23 p40, as appropriate) were determined by ELISA (eBioscience, San Diego, Calif. or R&D Systems, Minneapolis, Minn.).

[12] = system: THP-1 or THP-1 Blue cells; assay: Viability of THP-1 or THP-1 Blue cells; format: cell-based; settings: cotinine 100 ng ml^−1
[13] = cited from earlier work
[14] = system: GSK-3β (Ser9); assay: Phosphorylated GSK-3β western blot in monocytes; format: cell-based, human; settings: P. gingivalis stimulated monocytes
Procedure: as §3

[15] = system: P. gingivalis-stimulated human monocytes; assay: TNF release by P. gingivalis-stimulated human monocytes (ELISA); format: cell-based; settings: for TNF release compared to cells stimulated with P. gingivalis alone: 2 h pre-treatment with nicotine or cotinine, P. gingivalis MOI=10 for 20 h, dose-dependent
[16] = cotinine 100 ng ml^−1 2 h, P. gingivalis 33277 LPS 0-10^5 ng ml^−1 24 h
[17] = cotinine 1000 ng/ml 2 h, LPS 0 to 1×10^4 ng/ml 24 h

## Cn1cc(C2=C(c3ccc(Cl)cc3Cl)C(=O)NC2=O)c2ccccc21 [SB216763]
[1]; GSK-3β inhibitor SB216763 6 μM, LPS
  IL-10 production: enhances IL-10 production in response to LPS
[1]; SB216763 versus cotinine 10 ng ml^−1, p<0.05
  Potency as inducer of IL-10 relative to cotinine: significantly less potent inducer of IL-10 than cotinine; also recorded: less potent than even low doses of cotinine

## CN1C(=O)CC[C@H]1c1cccnc1 [cotinine, (S)-1-methyl-5-(3-pyridinyl)-2-Pyrrolidinone]
[2]
  LPS-induced NF-κB (SEAP activity): not affected; also recorded: not influenced
[3]
  Release of free radicals from neutrophils: suppresses the release of free radicals from neutrophils
[4]; cotinine 0 to 10,000 ng/ml 2 h, purified LPS 24 h
  IL-10 release: increased the production and release; also recorded: enhanced production; also recorded: increases the release
[4]; cotinine 100 ng ml^−1 2 h, P. gingivalis 33277 LPS 24 h
  IL-10 production: enhancing production; also recorded: augments IL-10 production
[5]
  PIP3 levels (PI3K activation): potently augments the activation of PI3K; also recorded: increased PIP3 levels
[6]
  Upregulation of nicotinic receptor expression in the brain: does not appear to upregulate
[7]
  Striatal dopamine release: evokes striatal dopamine release
[8]
  Levels of phosphorylated (active) Akt: enhances
[9]; cotinine 0 to 10^5 ng ml^−1
  Viability of primary monocytes compared to P. gingivalis alone: no statistically significant effect
[9]; cotinine 100 ng ml^−1
  Viability of primary monocytes compared to LPS alone: no statistically significant effect
[10]; humans
  Systemic concentration relative to nicotine: ten-fold
[10]
  Terminal elimination half-life: sixteen
  Mean concentration in smokers: 0.2 to 0.5 µg/mL
[10]; second-hand smokers
  Systemic levels in second-hand smokers: 1 to 15 ng/mL
[11]; [16]
  IL-1β release: dramatically suppresses
  IL-6 release: dramatically suppresses
  IL-12/IL-23 p40 subunit release: dramatically suppresses
  TNF-α release: dramatically suppresses
[11]; [17]
  IFN-γ production: suppressed
  IL-1β production: suppressed
  IL-6 production: suppressed
  IL-12/IL-23 p40 production: suppressed
  TNF-α production: suppressed
[12]
  Viability of THP-1 or THP-1 Blue cells compared to LPS alone: no statistically significant effect
[13]; cotinine infusions in humans
  Vasoactivity (heart rate, blood pressure, skin temperature): may not be vasoactive
[13]; in vivo
  Addictiveness: non-addictive
[13]; levels as high as 10 times that attained from cigarette smoking
  Safety of administration to humans: safe
[14]
  Levels of phosphorylated (inactive) GSK3-β: augments
[1]; cotinine pre-treatment 2 h, LPS 1 μg ml^−1 24 h
  IL-10 production: augment IL-10 production
[15]
  TNF release compared to cells stimulated with P. gingivalis alone: equally as effective as nicotine; also recorded: produce significantly less TNF-α

## CNC1(C)C2CCC(C2)C1(C)C (centres unmarked) [mecamylamine]
[15]; mecamylamine 10 μM pre-incubation
  Effect of non-selective nAChR antagonist on cotinine-induced inflammatory suppression: nAChR-dependent phenomenon

## CN1CCC[C@H]1c1cccnc1 [nicotine, (S)-3-(1-methyl-2-pyrrolidinyl)pyridine, reference compound]
[5]
  PIP3 levels (PI3K activation): increased PIP3 levels
[10]
  Terminal elimination half-life: two
  Mean concentration in smokers: ~0.03 µg/mL
[10]; metabolized by the liver
  Fraction of nicotine converted to cotinine: up to 80%
[15]
  TNF release compared to cells stimulated with P. gingivalis alone: inhibits the release of TNF; also recorded: produce significantly less TNF-α
